Marks after values point to notes of the source that are not given here.
What was measured:
[1] = circular dichroism (CD) detection of alpha helix content in PBS; format: physicochemical; set-up: [θ]215 / [θ]207 / [θ]190: unit not given here; settings: for [θ]190 / [θ]207 / [θ]215 / [θ]215/[θ]207: CD; for [θ]190 / [θ]207 / [θ]215 / [θ]215/[θ]207 / relative content of alpha helix: PBS pH = 7.4, 22° C., 10 mM; for relative content of alpha helix: [θ]215(x)/[θ]215(ASOB), ASOB is the standard; for alpha helix stabilization / content by CD (in words): PBS 10 mM
Description: The obtained compound 4 is dissolved into of PBS (PH=7.4, 10 mM) for obtaining a CD diagram.
fH=([θ]obs215-[θ]C)/([θ]∞215-[θ]C);
wherein T=22° C.; κ=4.0; Np=6 (for pentapeptide); ι=0.1 (cm); C is a molarity M of the samples of the two isomers.

[2] = CD comparison in PBS and 50% trifluoroethanol (TFE) solution; format: physicochemical; settings: CD in PBS versus 50% TFE solution
From the text: FIG. 2 is a CD diagram of the Ac-cyclo(1,5)-monoS5AAAC-NH2 sulfoxide B in the PBS and a 50% trifluoroethanol (TFE) solution according to the Example 1 of the present invention.

[θ]190 [1]	[θ]207 [1]	[θ]215 [1]	[θ]215/[θ]207 [1]	relative content of alpha helix [1]	improvement of the effects of stabilizing the alpha helix compared to conventional amido bond stabilization ([1]; versus control of Table 3, identical intermediate sequences)	effect of TFE buffer solution on the alpha helix [2]	Substance	alpha helix stabilization / content by CD (in words) [1]
39352	−13684	−13537	0.99	0.86**			Ac-(cyclo2,6)-R[KAAAD]-NH2 [control, reference compound]	
−14594	−4667	672	−0.14	−0.04	14%		Ac-cyclo(1,5)-monoS5AAAC-NH2 sulfoxide A [ASOA]	
25987	−16054	−15666	0.98	1.00		no improvements	Ac-cyclo(1,5)-monoS5AAAC-NH2 sulfoxide B [ASOB]	has stable alpha helixes
9121	−7777	−7920	1.02	0.51			Ac-cyclo(1,5)-monoS5AGAC-NH2 sulfoxide B [GSOB]	identically high contents of the alpha helixes
							Ac-cyclo(1,5)-monoS6AAAC-NH2 sulfoxide B	has effects of stabilizing alpha helix
26306	−15556	−13558	0.87	0.87			Ac-cyclo(1,5)-monoS5AIAC-NH2 sulfoxide B [ISOB]	identically high contents of the alpha helixes

— patent US20140357841A1, “Method for stabilizing polypeptide into alpha helix” (Peking University Shenzhen Graduate School, priority 2013, published 2014)
